Experimental data from patent US20080108686A1, “N-(Ortho-Phenyl)-1-Methyl-3-Difluoromethylpyrazole-4-Carboxanilides And Their Use As Fungicides” (BASF Aktiengesellschaft, priority 2004, published 2008).

Legend:
[1] = system: Leptosphaeria nodorum; experiment: Comparative Test 2: activity against leaf blotch on wheat; assay type: in vivo; conditions: protective spray 1 day before inoculation, wheat cultivar Kanzler, assessed after 8 days, untreated 80%
Method: (§1) The active compounds, separately or jointly, were prepared as a stock solution comprising 25 mg of active compound which was made up to 10 ml using a mixture of acetone and/or DMSO and the emulsifier Uniperol® EL (welting agent having an emulsifying and dispersing action based on ethoxylated alkylphenols) in a ratio by volume of solvent/emulsifier of 99:1. The mixture was then made up to 100 ml with water. This stock solution was diluted with the solvent/emulsifier/water mixture described to give the concentration of active compound stated below. Alternatively, the active compounds were employed as a commercial finished formulation and diluted with water to the stated concentration of active compound.
Activity Against Leaf Blotch on Wheat Caused by Leptosphaeria nodorum
Comp. 35 of EP-A 0 589301 was compared to the compounds 67.1-67.14 according to the invention of table 67. Pots of wheat plants of the cultivar “Kanzler” was sprayed to runoff point with an aqueous suspension having the concentration of active compound stated below. The next day, the pots were inoculated with an aqueous spore suspension of Leptosphaeria nodorum (syn. Stagonospora nodorum, Septoria nodorum). The plants were then placed into a chamber at 20° C. and maximum atmospheric humidity. After 8 days, the leaf blotch on the untreated but infected control plants had developed to such an extent that the infection could be determined visually in %.

[2] = system: Botrytis cinerea; experiment: Use Example 2a: activity against gray mold on bell pepper leaves, protective application; assay type: in vivo; conditions: protective spray 1 day before inoculation, bell pepper seedlings, assessed after 5 days, untreated 90%
Method: as §1
Activity against gray mold on bell pepper leaves caused by Botrytis cinerea, protective application Bell pepper seedlings of the cultivar “Neusiedler Ideal Elite” were, after 2-3 leaves were well developed, sprayed to runoff point with an aqueous suspension having the concentration of active compound stated below. The next day, the treated plants were inoculated with a spore suspension of Botrytis cinerea which comprised 1.7×10^6 spores/ml in a 2% strength aqueous biomalt solution. The test plants were then placed into a dark climatized chamber at 22-24° C. and high atmospheric humidity. After 5 days, the extent of the fungal infection on the leaves could be determined visually in %.

[3] = system: Puccinia recondita; experiment: Use Example 1: curative activity against brown rust of wheat; assay type: in vivo; conditions: curative spray 1 day after inoculation, wheat cultivar Kanzler, assessed after 7 days, untreated 90%
Method: as §1
(§2) Curative Activity Against Brown Rust of Wheat Caused by Puccinia recondita
Leaves of polted wheat seedlings of the cultivar “Kanzler” were inoculated with a spore suspension of brown rust (Puccinia recondita). The pots were then placed into a chamber with high atmospheric humidity (90-95%) at 20-22° C. for 24 hours. During this time, the spores germinated and the germ tubes penetrated into the leaf tissue. The next day, the infected plants were sprayed to runoff point with an aqueous suspension having the concentration of active compound stated below. The suspension or emulsion was prepared as described above. After the spray coating had dried on, the test plants were cultivated in a greenhouse at temperatures between 20 and 22° C. and at 65 to 70% relative atmospheric humidity for 7 days. The extent of the rust fungus development on the leaves was then determined.

[4] = system: Puccinia recondita; experiment: Comparative Test 1: curative activity against brown rust of wheat; assay type: in vivo; conditions: curative spray 1 day after inoculation, wheat cultivar Kanzler, assessed after 7 days, comparison with Comp. 35 of EP-A 0 589301, untreated 90%
Method: as §1, §2
Comp. 35 of EP-A 0 589301 was compared to the compounds 67.1-67.14 according to the invention of table 67. Leaves of potted wheat seedlings of the cultivar “Kanzler” were inoculated with a spore suspension of brown rust (Puccinia recondita). The pots were then placed into a chamber with high atmospheric humidity (90-95%) at 20-22° C. for 24 hours. During this time, the spores germinated and the germ tubes penetrated into the leaf tissue. The next day, the infected plants were sprayed to runoff point with an aqueous suspension having the concentration of active compound stated below. The suspension or emulsion was prepared as described above. After the spray coating had dried on, the test plants were cultivated in a greenhouse at temperatures between 20 and 22° C. and at 65 to 70% relative atmospheric humidity for 7 days. The extent of the rust fungus development on the leaves was then determined.

[5] = system: Pyrenophora teres; experiment: Use Example 2b: activity against net blotch of barley, 1 day protective application; assay type: in vivo; conditions: protective spray 24 hours before inoculation, barley seedlings, assessed after 6 days, untreated 90%
Method: as §1
Activity Against Net Blotch of Barley Caused byPyrenophora teres, 1 day Protective Application
Leaves of potted barley seedlings were sprayed to runoff point with an aqueous suspension having the concentration of active compound stated below. 24 hours after the spray coating had dried on, the test plants were inoculated with an aqueous spore suspension of Pyrenophora [syn. Drechslera] teres, the net blotch pathogen. The test plants were then placed into a greenhouse at temperatures between 20 and 24° C. and 95 to 100% relative atmospheric humidity. After 6 days, the extent of the development of the disease was determined visually in % infection of the total leaf area.

| melting point | Structure (SMILES) | Infection at LEPTNO P1 at 250 ppm (%) [1] | Infection at BOTRCI P1 at 250 ppm (%) [2] | Infection at PUCCRT K1 at 250 ppm (%) [3] | Infection at PUCCRT K1 at 250 ppm (%) [4] | Infection at PYRNTE P1 at 250 ppm (%) [5] |
| --- | --- | --- | --- | --- | --- | --- |
| – | Cc1cc(F)ccc1-c1ccccc1NC(=O)c1cn(C)nc1C(F)F [Compound 67.10] | 15% | 0% | 0% | 0% | – |
| – | Cc1cc(Cl)ccc1-c1ccccc1NC(=O)c1cn(C)nc1C(F)F [Compound 67.8] | – | 0% | 0% | 0% | – |
| – | Cn1cc(C(=O)Nc2ccccc2-c2cc(F)ccc2F)c(C(F)F)n1 [Compound 67.6] | 3% | 10% | 0% | 0% | – |
| – | Cc1cc(-c2ccccc2NC(=O)c2cn(C)nc2C(F)F)ccc1F [Compound 67.11] | – | 0% | 0% | 0% | – |
| – | Cn1cc(C(=O)Nc2ccccc2-c2ccc(F)c(Cl)c2)c(C(F)F)n1 [Compound 67.2] | 3% | 0% | 0% | 0% | – |
| – | Cn1cc(C(=O)Nc2ccccc2-c2ccc(Cl)cc2Cl)c(C(F)F)n1 [Compound 67.5] | 15% | – | 0% | 0% | – |
| – | Cn1cc(C(=O)Nc2ccccc2-c2ccc(F)cc2F)c(C(F)F)n1 [Compound 67.13] | 3% | – | 0% | 0% | 5% |
| – | Cn1cc(C(=O)Nc2ccccc2-c2cc(Cl)cc(Cl)c2)c(C(F)F)n1 [Compound 67.1] | 25% | 1% | 0% | 0% | – |
| 129 to 130 °C | Cn1cc(C(=O)Nc2ccccc2-c2ccc(Cl)c(Cl)c2)c(C(F)F)n1 [Compound 67.4, 3-difluoromethyl-1-methyl-N-(ortho-(3,4-dichlorophenyl)phenyl)-pyrazole-4-carboxamide] | 3% | 0% | 0% | 0% | – |
| – | Cn1cc(C(=O)Nc2ccccc2-c2ccccc2)c(C(F)F)n1 [reference compound] | 80% | – | – | 25% | – |
| – | COc1ccc(-c2ccccc2NC(=O)c2cn(C)nc2C(F)F)c(C)c1 [Compound 67.14] | 5% | – | 0% | 0% | – |
| – | Cn1cc(C(=O)Nc2ccccc2-c2ccc(Cl)c(F)c2)c(C(F)F)n1 [Compound 67.12] | 3% | 7% | 0% | 0% | – |
| – | Cc1cc(-c2ccccc2NC(=O)c2cn(C)nc2C(F)F)ccc1Cl [Compound 67.9] | – | 0% | 3% | 3% | – |
| – | Cn1cc(C(=O)Nc2ccccc2-c2ccc(Cl)cc2F)c(C(F)F)n1 [Compound 67.7] | 0% | – | 0% | 0% | 5% |
| – | Cn1cc(C(=O)Nc2ccccc2-c2ccc(F)c(F)c2)c(C(F)F)n1 [Compound 67.3] | 7% | 1% | 0% | 0% | – |
